{"source": "patent US10888524B2", "about": "“Immediate release tablet of dofetilide” (Enaltec Pharma Research Pvt. Ltd., priority 2018, dated 2021)", "origin": "cited, not measured here", "key": {"[1]": {"system": "patients with severe left ventricular dysfunction", "conditions": "unlike class I agents"}, "[2]": {"system": "patients with atrial as well as ventricular arrhythmias"}}}
{"smiles": "CN(CCOc1ccc(NS(C)(=O)=O)cc1)CCc1ccc(NS(C)(=O)=O)cc1", "note": "[Dofetilide, N-[4-[2-[methyl[2-[4-[(methylsulfonyl)amino]phenoxy]ethyl]amino]ethyl]phenyl]-methane sulfonamide]", "values": [{"measurement": "Safety in patients with congestive heart failure", "setting": "[1]", "result": "safe"}, {"measurement": "Efficacy in treating arrhythmias", "setting": "[2]", "result": "effective"}]}
